Structures can show the parent of a compound that is named as a salt. Where two headings read alike, the source gives them in different places. Values belong to the compound of their own block, whether it stands above or below them.
Legend:
human 5-HT6R [1] = target: T1, human 5-HT6R (Homo sapiens, UniProt P50406); experiment: [3H]-LSD radioligand binding assay at 5-HT6R in HEK293 cell membranes; conditions: HEK293 cells with stable expression of human 5-HT6R, mean of at least three experiments (SEM ≤ 18%)
T1 construct: expressed in transfected cells
T1 sequence (P50406 whole entry): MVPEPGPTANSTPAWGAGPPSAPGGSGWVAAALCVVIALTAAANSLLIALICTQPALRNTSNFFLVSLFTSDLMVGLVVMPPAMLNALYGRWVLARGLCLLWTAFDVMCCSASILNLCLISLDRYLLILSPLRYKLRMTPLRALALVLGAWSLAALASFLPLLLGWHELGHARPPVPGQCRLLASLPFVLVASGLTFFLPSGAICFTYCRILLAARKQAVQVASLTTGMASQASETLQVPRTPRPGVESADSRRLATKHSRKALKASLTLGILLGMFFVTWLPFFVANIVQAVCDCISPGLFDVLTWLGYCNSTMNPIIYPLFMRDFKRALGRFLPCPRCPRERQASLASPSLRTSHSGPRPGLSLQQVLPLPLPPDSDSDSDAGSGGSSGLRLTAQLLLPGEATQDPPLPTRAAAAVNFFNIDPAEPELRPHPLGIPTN
Procedure: (§1) The biological evaluation was initiated by assessing the affinity of the compounds for 5-HT6R in the [^3H]-LSD radioligand binding assay. Experiments were performed in a stable HEK293 cell line expressing the human 5-HT6R [10]. […] Experiments were performed in Chinese hamster ovary (CHO) cells with the stable expression of human D3R (Eurofins, Celle-L’Evescault, France).
HEK293 cells with stable expression of human 5-HT6 receptors (prepared with the use of Lipofectamine 2000) were maintained at 37 °C in a humidified atmosphere with 5% CO2 and grown in Dulbecco’s modified Eagle medium containing 10% dialyzed fetal bovine serum and 500 μg/mL G418 sulfate. For membrane preparation, cells were sub-cultured in 150 cm^2 flasks, grown to 90% confluence, washed twice with phosphate buffered saline (PBS), prewarmed to 37 °C, and pelleted by centrifugation (200× g) in PBS containing 0.1 mM EDTA and 1 mM dithiothreitol. Prior to membrane preparation, pellets were stored at −80 °C.
The cell pellets were thawed and homogenized in 10 volumes of assay buffer using an Ultra Turrax tissue homogenizer(IKA, Warsaw, Poland), centrifuged twice at 35,000× g for 15 min at 4 °C, and incubated for 15 min at 37 °C between centrifugation rounds. The composition of the assay buffers was 50 mM Tris HCl, 0.5 mM EDTA, and 4 mM MgCl2. The assays were incubated in a total volume of 200 μL in 96-well microtiter plates for 1 h at 37 °C. The process of equilibration was terminated by rapid filtration through Unifilter plates with a 96-well cell harvester, and radioactivity retained on the filters was quantified on a Microbeta plate reader (PerkinElmer, Waltham, MA, USA). For displacement studies, the assay samples contained as radioligands (PerkinElmer, USA) 2 nM [^3H]-LSD (83.6 Ci/mmol). Nonspecific binding was defined with 10 μM methiothepine. Each compound was tested in triplicate at 7 concentrations (10^−10 to 10^−4 M). The inhibition constants (Ki) were calculated from the Cheng−Prusoff equation [30]. […]

D2R = conditions: Figure 1; ref 25 (SB737050), ref 19 (I), ref 26 (PZ-1643), ref 27 (CPPQ); cited from earlier work
human D3R [2] = target: T2, human D3R (Homo sapiens, UniProt P35462); experiment: D3R screening binding with [3H]-methylspiperone in CHO cells (Eurofins); conditions: percentage displacement at 10^-6 M; CHO cells with stable expression of human D3R; read-out: %inh Binding to D3R @1μM
T2 sequence (P35462 whole entry): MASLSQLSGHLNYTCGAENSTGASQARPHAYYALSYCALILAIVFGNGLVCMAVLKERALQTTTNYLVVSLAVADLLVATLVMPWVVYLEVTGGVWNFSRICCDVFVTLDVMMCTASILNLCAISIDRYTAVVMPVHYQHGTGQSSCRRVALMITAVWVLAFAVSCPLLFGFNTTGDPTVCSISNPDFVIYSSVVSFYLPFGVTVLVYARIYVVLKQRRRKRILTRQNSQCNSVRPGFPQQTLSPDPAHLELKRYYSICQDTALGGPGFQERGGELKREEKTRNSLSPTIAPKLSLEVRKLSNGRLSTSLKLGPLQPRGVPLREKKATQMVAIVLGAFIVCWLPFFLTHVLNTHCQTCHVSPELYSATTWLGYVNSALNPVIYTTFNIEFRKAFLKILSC
Procedure: as §1

5-HT6R = conditions: Figure 1; ref 25 (SB737050), ref 19 (I), ref 26 (PZ-1643), ref 27 (CPPQ); cited from earlier work
human 5-HT6R [3] = target: T1, human 5-HT6R; parameters: method as in PMID 30896921; conditions: HEK293 cells, data taken from ref 26; cited from earlier work
D3R = target: D3R; parameters: method as in earlier work; conditions: Figure 1; ref 25 (SB737050), ref 19 (I), ref 26 (PZ-1643); cited from earlier work
human D3R [4] = target: T2, human D3R; parameters: method as in PMID 30896921; conditions: data taken from ref 26, cited from earlier work
human serotonin 5-HT6R = target: T3, human serotonin 5-HT6R (Homo sapiens, UniProt P50406); experiment: cAMP cellular assay, inhibition of 5-CT-induced cAMP production in 1321N1 cells; format: cell-based; conditions: 1321N1 cells expressing human 5-HT6R; cAMP production induced by 5-CT (1000 nM); read-out: Kb, antagonist properties at 5-HT6R
T3 construct: host or cells: 1321N1 (frozen recombinant cells)
T3 sequence (P50406 whole entry): as the sequence (P50406 whole entry) above
Procedure: The experiments were performed in 1321N1 cells expressing the human serotonin 5-HT6R.
The functional properties of compounds on 5-HT6R were evaluated using its ability to inhibit cAMP production induced by 5-CT (1000 nM), a 5-HT6R agonist. The compound was tested in triplicate at 8 concentrations (10^−11 to 10^−4 M). The level of adenylyl cyclase activity was measured using frozen recombinant 1321N1 cells expressing the human serotonin 5-HT6R (PerkinElmer). Total cAMP was measured using the LANCE cAMP detection kit (PerkinElmer), according to the manufacturer’s directions. For quantification of cAMP levels, cells (5 μL) were incubated with a mixture of compounds (5 μL) for 30 min at room temperature in 384-well white opaque microtiter plates. After incubation, the reaction was stopped, and cells were lysed by the addition of 10 μL of working solution (5 μL of Eu-cAMP and 5 μL of ULight-anti-cAMP). The assay plate was incubated for 1 h at room temperature. Time-resolved fluorescence resonance energy transfer (TR-FRET) was detected by an Infinite M1000 Pro (Tecan, Männedorf, Switzerland) using instrument settings from LANCE cAMP detection kit manual(PerkinElmer, Waltham, MA, USA).

human 5-HT6R [5] = target: T1, human 5-HT6R; experiment: 5-HT6R constitutive activity at Gs signaling in NG108-15 cells (CAMYEL BRET cAMP sensor); format: cell-based; conditions: NG108-15 cells transiently expressing 5-HT6R; Figure 3
Procedure: The experiments were performed in 1321N1 cells expressing the human serotonin 5-HT6R. […] Neuroblastoma cells (NG108-15) were grown in DMEM (Dulbecco’s modified Eagle’s medium) supplemented with 10% heat-inactivated fetal bovine serum, 2% HAT (hypoxanthine/aminopterin/thymidine, Life technologies), glutamine, and antibiotics at 37 °C under 5% of CO2. cAMP measurement was performed in cells transiently transfected with a construct expressing the CAMYEL bioluminescence resonance energy transfer (BRET) sensor for cAMP [44] (3 μg DNA/million cells) alone or in combination with a plasmid encoding the human 5-HT6R (0.5 μg DNA/million cells). Transfection of the NG108-15 cells was conducted in suspension using Lipofectamine 2000, according to the manufacturer’s protocol. Plasmids and lipofectamine were diluted in Opti-MEM Reduced Serum Media (Gibco) and incubated at room temperature for 20 min before being added to the cells. […] Coelanterazine H (Molecular Probes) was added in each well at a final concentration of 5 μM and incubated at room temperature for 5 min before measuring BRET in a Mithras LB 940 plate reader (Berthold Technologies, Bad Wildbad, Germany). The decrease in CAMYEL BRET induced by the coexpression of the probe with the 5-HT6R as compared to the BRET measured in cells expressing the probe alone was used as an index of the 5-HT6R constitutive activity.

Ki (human 5-HT6R [1]): 87 nM
SMILES: COCCCN1CCC[C@@H]1CNc1nc2ccccc2c2c1ccn2S(=O)(=O)c1cccc(Cl)c1 [Compound 21, (R)-1-((3-chlorophenyl)sulfonyl)-N-((1-(3-methoxypropyl)pyrrolidin-2-yl)methyl)-1H-pyrrolo[3,2-c]quinolin-4-amine]

Ki (human 5-HT6R [1]): 65 nM
SMILES: CC(C)CN1CCC[C@H]1CNc1nc2ccccc2c2c1ccn2S(=O)(=O)c1cccc(Cl)c1 [Compound 18, (S)-1-((3-chlorophenyl)sulfonyl)-N-((1-isobutylpyrrolidin-2-yl)methyl)-1H-pyrrolo[3,2-c]quinolin-4-amine hydrochloride]

Ki (human 5-HT6R [1]): 58 nM
SMILES: O=S(=O)(c1cccc(Cl)c1)n1ccc2c(NC[C@H]3CCCN3CCO)nc3ccccc3c21 [Compound 19, (R)-2-(2-(((1-((3-chlorophenyl)sulfonyl)-1H-pyrrolo[3,2-c]quinolin-4 yl)amino)methyl)-pyrrolidin-1-yl)ethan-1-ol hydrochloride]

Ki (human 5-HT6R [1]): 38 nM
SMILES: CCN1CC[C@H](CNc2nc3ccccc3c3c2ccn3S(=O)(=O)c2cccc(Cl)c2)C1 [Compound 15, (R)-1-((3-chlorophenyl)sulfonyl)-N-((1-ethylpyrrolidin-3-yl)methyl)-1H-pyrrolo[3,2-c]quinolin-4-amine hydrochloride]

Ki (human 5-HT6R [1]): 556 nM
SMILES: O=S(=O)(c1cccc(Cl)c1)n1ccc2c(N[C@H]3CCN(CCC(F)(F)F)C3)nc3ccccc3c21 [Compound 12, (S)-1-((3-chlorophenyl)sulfonyl)-N-(1-(3,3,3-trifluoropropyl)pyrrolidin-3-yl)-1H-pyrrolo[3,2-c]quinolin-4-amine]

Ki (human 5-HT6R [1]): 77 nM
SMILES: O=S(=O)(c1cccc(Cl)c1)n1ccc2c(NC[C@@H]3CCCN3CCO)nc3ccccc3c21 [Compound 20, (S)-2-(2-(((1-((3-chlorophenyl)sulfonyl)-1H-pyrrolo[3,2-c]quinolin-4 yl)amino)methyl)pyrrolidin-1-yl)ethan-1-ol hydrochloride]

Ki (human 5-HT6R [1]): 64 nM
SMILES: CCN1CC[C@@H](CNc2nc3ccccc3c3c2ccn3S(=O)(=O)c2cccc(Cl)c2)C1 [Compound 16, (S)-1-((3-chlorophenyl)sulfonyl)-N-((1-ethylpyrrolidin-3-yl)methyl)-1H-pyrrolo[3,2-c]quinolin-4-amine hydrochloride]

Ki (human 5-HT6R [1]): 72 nM
SMILES: CCN1CCC[C@H]1CNc1nc2ccccc2c2c1ccn2S(=O)(=O)c1cccc(Cl)c1 [Compound 14, (S)-1-((3-chlorophenyl)sulfonyl)-N-((1-ethylpyrrolidin-2-yl)methyl)-1H-pyrrolo[3,2-c]quinolin-4-amine hydrochloride]

Kb (human serotonin 5-HT6R): 3.8 nM
Ki (human 5-HT6R [1]): 27 nM
Impact on 5-HT6R-operated Gs signaling (constitutive activity) (human 5-HT6R [5]): neutral antagonist
inhibition at 1 µM (human D3R [2]): 57%
SMILES: CC(C)CN1CCC[C@@H]1CNc1nc2ccccc2c2c1ccn2S(=O)(=O)c1cccc(Cl)c1.Cl [Compound 17, (R)-1-((3-chlorophenyl)sulfonyl)-N-((1-isobutylpyrrolidin-2-yl)methyl)-1H-pyrrolo[3,2-c]quinolin-4-amine hydrochloride]

Kb (human serotonin 5-HT6R): 1.2 nM
Ki (human 5-HT6R [1]): 27 nM
Impact on 5-HT6R-operated Gs signaling (constitutive activity) (human 5-HT6R [5]): neutral antagonist
inhibition at 1 µM (human D3R [2]): 58%
SMILES: CCN1CCC[C@@H]1CNc1nc2ccccc2c2c1ccn2S(=O)(=O)c1cccc(Cl)c1.Cl [Compound 13, (R)-1-((3-chlorophenyl)sulfonyl)-N-((1-ethylpyrrolidin-2-yl)methyl)-1H-pyrrolo[3,2-c]quinolin-4-amine hydrochloride]

Continued, compound first:

SMILES: O=S(=O)(c1cccc(Cl)c1)n1ccc2c(N[C@H]3CCNC3)nc3ccccc3c21 [CPPQ, (S)-1-((3-chlorophenyl)sulfonyl)-N-(pyrrolidin-3-yl)-1H-pyrrolo[3,2-c]quinolin-4-amine]
pKi D2R (D2R): 6.0

SMILES: COCCCN1CC[C@H](Nc2nc3ccccc3c3c2ccn3S(=O)(=O)c2cccc(Cl)c2)C1 [Compound 11, (S)-1-((3-chlorophenyl)sulfonyl)-N-(1-(3-methoxypropyl)pyrrolidin-3-yl)-1H-pyrrolo[3,2-c]quinolin-4-amine]
Ki (human 5-HT6R [1]): 17 nM
inhibition at 1 µM (human D3R [2]): 25%

SMILES: CC(C)CN1CC[C@H](Nc2nc3ccccc3c3c2ccn3S(=O)(=O)c2cccc(Cl)c2)C1 [PZ-1643]
pKi 5-HT6R (5-HT6R): 7.6
pKi D2R (D2R): 6.5
Ki (human 5-HT6R [3]): 27 nM
pKi D3R (D3R): 8.2
%inh Binding to D3R @1μM (human D3R [4]; percentage displacement at 10^-6 M): 98%
Ki (human D3R [4]; printed in parentheses after %inh, read-out: D3R affinity value in parentheses (Ki)): 7 nM

SMILES: C[C@@H](O)CN1CC[C@H](Nc2nc3ccccc3c3c2ccn3S(=O)(=O)c2cccc(Cl)c2)C1 [Compound 9, (R)-1-((S)-3-((1-((3-chlorophenyl)sulfonyl)-1H-pyrrolo[3,2-c]quinolin-4-yl)amino)pyrrolidin-1-yl)propan-2-ol]
Ki (human 5-HT6R [1]): 6 nM
inhibition at 1 µM (human D3R [2]): 54%

SMILES: O=S(=O)(c1cccc(Cl)c1)n1ccc2c(N[C@H]3CCN(CCO)C3)nc3ccccc3c21 [Compound 10, (S)-2-(3-((1-((3-chlorophenyl)sulfonyl)-1H-pyrrolo[3,2-c]quinolin-4-yl)amino)pyrrolidin-1-yl)ethan-1-ol]
Ki (human 5-HT6R [1]): 84 nM

SMILES: CN1Cc2c(ccc3c2ccn3S(=O)(=O)c2c(Cl)nc3sccn23)CC1CCO (centres unmarked) [I]
pKi 5-HT6R (5-HT6R): 8.7
pKi D2R (D2R): 7.4
pKi D3R (D3R): 9.0

SMILES: C[C@H](O)CN1CC[C@H](Nc2nc3ccccc3c3c2ccn3S(=O)(=O)c2cccc(Cl)c2)C1 [Compound 8, (S)-1-((S)-3-((1-((3-chlorophenyl)sulfonyl)-1H-pyrrolo[3,2-c]quinolin-4-yl)amino)pyrrolidin-1-yl)propan-2-ol]
Ki (human 5-HT6R [1]): 11 nM

SMILES: COc1cc2c(cc1NS(=O)(=O)c1ccc(-c3cccs3)cc1)CCN(C)CC2 [SB737050]
pKi 5-HT6R (5-HT6R): 9.0
pKi D2R (D2R): 7.7
pKi D3R (D3R): 7.9

— PMC9920808, “Impact of the Substitution Pattern at the Basic Center and Geometry of the Amine Fragment on 5-HT6 and D3R Affinity in the 1H-Pyrrolo[3,2-c]quinoline Series” (Molecules, 2023)
